pIC50: −log10 of the molar value.
Target: T1, interaction between biotinylated human S100A9 and human RAGE-Fc (Homo sapiens, UniProt P06702)
T1 construct: made in house; host or cells: E. coli BL21(DE3)/pET1120 (pLR757)
T1 sequence (P06702 1-114): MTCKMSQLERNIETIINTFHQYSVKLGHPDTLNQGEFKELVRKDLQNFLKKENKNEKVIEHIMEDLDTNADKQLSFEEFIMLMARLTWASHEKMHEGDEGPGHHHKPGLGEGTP
Assay: AlphaScreen inhibition assay, Biot-hS100A9:hRAGE-Fc (S100A9-RAGE inhibition assay)
Assay type: binding
Conditions: biot-hS100A9 and rhRAGE-Fc, Ca2+ and Zn2+ in buffer
Description: FIG. 1 is a schematic representation of an assay of the inhibition of the interaction between biotinylated human S100A9 and human RAGE-Fc using a small molecule S100A9 binder.
Inhibition Assay, Biot-hS100A9:hRAGE-Fc
The AlphaScreen (Amplified Luminescent Proximity Homogeneous Assay) contains two types of beads, Alpha Donor beads and Acceptor beads (PerkinElmer). Upon laser excitation at 680 nm a photosensitizer in the Donor bead converts ambient oxygen to a more excited singlet state. The singlet oxygen molecule diffuses (maximum 200 nm) to react with a thioxene derivative in the Acceptor bead and generates a chemiluminescence reaction. Fluorophores in the Acceptor bead subsequently emit light at 520-620 nm which can be detected in the EnVision® Multilabel plate Reader (PerkinElmer). The beads are light sensitive and all work with the beads is performed under subdued light conditions or using green filters on light sources (Roscolux Chroma Green #389, Rosco).
In the AlphaScreen Inhibition Assay described here, protein A (Staphylococcus aureus) conjugated Acceptor beads are used together with streptavidin coated Donor beads (Perkin Elmer 6760617M). The Acceptor beads are pre-incubated with Fc-tagged recombinant human RAGE (rhRAGE-Fc) allowing binding of the rhRAGE-Fc to protein A on the beads. Biotinylated human S100A9 (biot-hS100A9) is pre-incubated with the low molecular test compounds. The pre-mixes are then added to the wells of a micro-plate and incubated allowing interaction between biot-hS100A9 and rhRAGE-Fc. Subsequent addition of streptavidin coated Donor beads causes binding of the streptavidin to the biotinylated hS100A9. After an additional incubation the signal is measured.
Without inhibitory compounds, the interaction of biot-hS100A9 to rhRAGE-Fc will bring the Acceptor and Donor beads in close proximity thus generating a high signal. With an inhibitor present the complex will not form resulting in a decreased signal.
The AlphaScreen assay method is used for screening of the inhibitory effect of different compound samples at fixed concentrations or for IC50 determination by varying the compound concentrations. Samples of test compounds and references are prepared from solutions in DMSO. Relevant reference inhibitors and DMSO are used as controls for defined inhibition and non-inhibition, respectively in the assay. The percent inhibition in assay for test compounds and references are calculated by comparing their obtained assay signals with the signal values for the control with only DMSO (no compound).
Assay concentration of biotinylated hS100A9 and rhRAGE-Fc are batch dependent, and are determined and defined by separate cross-titration experiments using this AlphaScreen inhibition method to verify the optimal setup regarding signal strength and achievement of a defined inhibition with relevant reference compounds. The Final assay concentrations of Acceptor and Donor beads are 20 μg/mL.
Assay buffer is prepared by adding CaCl2 and ZnCl2 to HBS-P and is used freshly prepared in the experiment.
Biotin-hS100A9 solution for the experiment is prepared by dilution of appropriate amount of stock solution biot-hS100A9 in assay buffer (with CaCl2 and ZnCl2) and incubation in room temperature for 30 minutes.
rhRAGE-Fc solution for the experiment is prepared by dilution appropriate amount of rhRAGE-Fc stock in assay buffer.
Protein A Acceptor beads are diluted in assay buffer and are added to an equal volume of the prepared diluted rhRAGE-Fc solution. The beads are light sensitive. The vial is covered with aluminum foil and incubated at room temperature in the dark until biot-hS100A9+compound incubation is finished (see below).
Streptavidin-coated Donor beads are diluted in assay buffer. The beads are very light sensitive. The vial is covered with aluminum foil and incubated at room temperature in the dark until use (see below).
Samples of test compounds, appropriate references and DMSO control are diluted in assay buffer. […]

pIC50 | Structure (SMILES)
6.04 | O=C(CCC1CCCC1)NC1(C(F)(F)F)C(=O)Nc2nc3c(-c4nnn[nH]4)cccc3n21 (centres unmarked) [Example 199, 3-cyclopentyl-N-[4-oxo-9-(1H-1,2,3,4-tetrazol-5-yl)-3-(trifluoromethyl)-2,5,7-triazatricyclo[6.4.0.0^2,6]dodeca-1(12),6,8,10-tetraen-3-yl]propanamide]
5.85 | O=C(CCC1CCCC1)NC1(C(F)(F)F)C(=O)Nc2nc3c(Cl)cc(Cl)cc3n21 (centres unmarked) [Example 84, 3-cyclopentyl-N-[9,11-dichloro-4-oxo-3-(trifluoromethyl)-2,5,7-triazatricyclo[6.4.0.0^2,6]-dodeca-1(12),6,8,10-tetraen-3-yl]propanamide]
6.06 | CC(=O)c1cccc2c1nc1n2C(NC(=O)CCC2CCCC2)(C(F)(F)F)C(=O)N1 (single isomer, unassigned) [Example 224a, N-[9-acetyl-4-oxo-3-(trifluoromethyl)-2,5,7-triazatricyclo[6.4.0.0^2,6]dodeca-1(12),6,8,10-tetraen-3-yl]-3-cyclopentylpropanamide]
5.85 | O=C(NC1(C(F)(F)F)C(=O)Nc2nc3cc(Cl)c(Cl)cc3n21)c1cccc(Cl)c1 (centres unmarked) [Example 56, 3-chloro-N-[10,11-dichloro-4-oxo-3-(trifluoromethyl)-2,5,7-triazatricyclo[6.4.0.0^2,6]-dodeca-1(12),6,8,10-tetraen-3-yl]benzamide]
6.21 | Cc1cc2nc3n(c2cc1C)C(NC(=O)[C@@H](C)Oc1cccc(Cl)c1)(C(F)(F)F)C(=O)N3 (single isomer, unassigned) [Example 212a]
5.58 | Cc1cc2nc3n(c2cc1C)C(NC(=O)[C@H](C)OCC1CCCC1)(C(F)(F)F)C(=O)N3 (single isomer, unassigned) [Example 215b]
5.70 | O=C(NC1(C(F)(F)F)C(=O)Nc2nc3cc(Cl)c(Cl)cc3n21)C1CCNC1 (mixture of isomers) [Example 42, N-[10,11-dichloro-4-oxo-3-(trifluoromethyl)-2,5,7-triazatricyclo-[6.4.0.0^2,6]dodeca-1(12),6,8,10-tetraen-3-yl]pyrrolidine-3-carboxamide]
6.40 | O=C(NC1(C(F)(F)F)C(=O)Nc2nc3cc(Cl)c(Cl)cc3n21)c1cccc(NC2CCCCC2)n1 (centres unmarked) [Example 66, 6-(cyclohexylamino)-N-[10,11-dichloro-4-oxo-3-(trifluoromethyl)-2,5,7-triazatricyclo-[6.4.0.0^2,6]dodeca-1(12),6,8,10-tetraen-3-yl]pyridine-2-carboxamide]
5.40 | Cc1cc2nc3n(c2cc1C)C(NC(=O)c1ccc(OCC(F)(F)F)nc1)(C(F)(F)F)C(=O)N3 (centres unmarked) [Example 21, N-[10,11-dimethyl-4-oxo-3-(trifluoromethyl)-2,5,7-triazatricyclo[6.4.0.0^2,6]dodeca-1(8),6,9,11-tetraen-3-yl]-6-(2,2,2-trifluoroethoxy)pyridine-3-carboxamide]
5.69 | N#Cc1cccc(C(=O)NC2(C(F)(F)F)C(=O)Nc3nc4cc(Cl)c(Cl)cc4n32)c1 (centres unmarked) [Example 100, 3-cyano-N-[10,11-dichloro-4-oxo-3-(trifluoromethyl)-2,5,7-triazatricyclo[6.4.0.0^2,6]dodeca-1(8),6,9,11-tetraen-3-yl]benzamide]
5.89 | CCNc1cccc(C(=O)NC2(C(F)(F)F)C(=O)Nc3nc4cc(Cl)c(Cl)cc4n32)n1 (centres unmarked) [Example 70, N-[10,11-dichloro-4-oxo-3-(trifluoromethyl)-2,5,7-triazatricyclo[6.4.0.0^2,6]dodeca-1(12),6,8,10-tetraen-3-yl]-6-(ethylamino)pyridine-2-carboxamide]
5.84 | O=C(CCC1CCCC1)NC1(C(F)(F)F)C(=O)Nc2nc3c(Br)cc(Cl)cc3n21 (centres unmarked) [Example 181, N-[9-bromo-11-chloro-4-oxo-3-(trifluoromethyl)-2,5,7-triazatricyclo[6.4.0.0^2,6]dodeca-1(12),6,8,10-tetraen-3-yl]-3-cyclopentylpropanamide]
5.64 | O=C(NC1(C(F)(F)F)C(=O)Nc2nc3cc(Cl)c(Cl)cc3n21)C1CCN(C(=O)C2CCCC2)C1 (racemic) [Example 50, (rac).1-cyclopentanecarbonyl-N-[10,11-dichloro-4-oxo-3-(trifluoromethyl)-2,5,7-triaza-tricyclo[6.4.0.0^2,6]dodeca-1(12),6,8,10-tetraen-3-yl]pyrrolidine-3-carboxamide]
5.54 | COc1ccc(-c2cccc3c2nc2n3C(NC(=O)CCC3CCCC3)(C(F)(F)F)C(=O)N2)cc1 (single isomer, unassigned) [Example 230b, 3-cyclopentyl-N-[9-(4-methoxyphenyl)-4-oxo-3-(trifluoromethyl)-2,5,7-triazatricyclo[6.4.0.0^2,6]dodeca-1(12),6,8,10-tetraen-3-yl]propanamide]
5.74 | COCCNc1nc(C(=O)NC2(C(F)(F)F)C(=O)Nc3nc4cc(C)c(C)cc4n32)cs1 (centres unmarked) [Example 119, N-[10,11-dimethyl-4-oxo-3-(trifluoromethyl)-2,5,7-triazatricyclo[6.4.0.0^2,6]dodeca-1(8),6,9,11-tetraen-3-yl]-2-[(2-methoxyethyl)amino]-1,3-thiazole-4-carboxamide]
6.13 | O=C(CCC1CCCC1)NC1(C(F)(F)F)C(=O)Nc2nc3c(C(=O)O)cccc3n21 (centres unmarked) [Example 160, 3-(3-cyclopentylpropanamido)-4-oxo-3-(trifluoromethyl)-2,5,7-triazatricyclo[6.4.0.0^2,6]dodeca-1(12),6,8,10-tetraene-9-carboxylic acid]
5.77 | Cc1cc2nc3n(c2cc1C)C(NC(=O)CC1CCCCC1)(C(F)(F)F)C(=O)N3 (centres unmarked) [Example 20, 2-cyclohexyl-N-[10,11-dimethyl-4-oxo-3-(trifluoromethyl)-2,5,7-triazatricyclo-[6.4.0.0^2,6]dodeca-1(8),6,9,11-tetraen-3-yl]acetamide]
5.34 | Cc1cc2nc3n(c2cc1C)C(NC(=O)[C@@H](C)Oc1cccc(Cl)c1)(C(F)(F)F)C(=O)N3 (single isomer, unassigned) [Example 212b]
5.90 | O=C(CCC1CCCC1)NC1(C(F)(F)F)C(=O)Nc2nc3c(-c4ccccc4)cccc3n21 (centres unmarked) [Example 195, 3-cyclopentyl-N-[4-oxo-9-phenyl-3-(trifluoromethyl)-2,5,7-triazatricyclo[6.4.0.0^2,6]dodeca-1(12),6,8,10-tetraen-3-yl]propanamide]
5.19 | Cc1cc2nc3n(c2cc1C)C(NC(=O)[C@@H](C)c1ccccc1)(C(F)(F)F)C(=O)N3 (single isomer, unassigned) [Example 144]
5.27 | Cc1cc2nc3n(c2cc1C)C(NC(=O)[C@@H](O)c1ccccc1)(C(F)(F)F)C(=O)N3 (single isomer, unassigned) [Example 146a]
6.27 | CSc1ccc(-c2cccc3c2nc2n3C(NC(=O)CCC3CCCC3)(C(F)(F)F)C(=O)N2)cc1 (centres unmarked) [Example 232, 3-cyclopentyl-N-{9-[4-(methylsulfanyl)phenyl]-4-oxo-3-(trifluoromethyl)-2,5,7-triazatricyclo[6.4.0.0^2,6]dodeca-1(12),6,8,10-tetraen-3-yl}propanamide]
5.83 | O=C(CCC1CCCC1)NC1(C(F)(F)F)C(=O)Nc2nc3c(OC(F)(F)F)cccc3n21 (centres unmarked) [Example 164, 3-cyclopentyl-N-[4-oxo-9-(trifluoromethoxy)-3-(trifluoromethyl)-2,5,7-triazatricyclo[6.4.0.0^2,6]dodeca-1(12),6,8,10-tetraen-3-yl]propanamide]
